Test results taken from patent publication EP1593384A2, “Compositions for treatment of sexual dysfunction” (Palatin Technologies, Inc., priority 1999, dated 2005).

Legend:
human MC4-R = test: Agonist activity by cAMP detection in transfected HEK 293 cells; type: cell-based; conditions: conclusion from cAMP results
Method: HEK 293 cells, stably transfected with human MC4-R, were used. […] Following incubation, the medium was aspirated and cell layers extracted. The total cAMP accumulation in fixed quantities of cell extract was determined by competitive immunoassay using the cAMP kit.

Sprague Dawley rats [1] = test: Induced penile erection by intravenous injection; type: in vivo; conditions: for dose resulting in (equivalent) penile response: intravenous injection in rats; for efficacious dose, efficacy determined by induction of penile erection in 100% of animals: intravenous injection, rats; for % Rats with Penile Erection / Number of Erections/Rat/30 Minutes: intravenous
MC3-R = conditions: read-out: RELATIVE BINDING (KI) MC3-R; competitive inhibition; transfected HEK 293 cells
Method: (§1) Relative binding was determined by competitive inhibition using α-MSH. B16-F1 melanoma cells were used as the source of MC1 receptors; HEK 293 cells, transfected with human melanocortin receptor sequences, were used as the source of MC3, MC4 and MC5 receptors; and Y1 cells were used as the source of MC2 receptors.

MC1-R = conditions: read-out: RELATIVE BINDING (KI) MC1-R; competitive inhibition; B16-F1 melanoma cells as receptor source
Method: as §1

[2] = system: men with psychogenic erectile dysfunction; conditions: subcutaneous, 0.025 to 0.157 mg/kg body weight; cited from earlier work
Sprague Dawley rats [3] = test: Induced penile erection by intranasal administration (dosing study); type: in vivo; conditions: for % Rats with Penile Erection / Number of Erections/Rat/30 Minutes: intranasal
MC5-R = conditions: read-out: RELATIVE BINDING (KI) MC5-R; competitive inhibition; transfected HEK 293 cells
Method: as §1

Substance | agonist activity to MC4-R (human MC4-R) | dose resulting in (equivalent) penile response (Sprague Dawley rats [1]) | efficacious dose, efficacy determined by induction of penile erection in 100% of animals (Sprague Dawley rats [1]) | Ki (MC3-R) [nM] | Ki (MC1-R) [nM] | treated men developing clinically apparent erections [2] | % Rats with Penile Erection (Sprague Dawley rats [3]; dose 100 µg/kg) [%] | Number of Erections/Rat/30 Minutes (Sprague Dawley rats [3]; dose 100 µg/kg) | % Rats with Penile Erection (Sprague Dawley rats [3]; dose 500 µg/kg) [%] | Number of Erections/Rat/30 Minutes (Sprague Dawley rats [3]; dose 500 µg/kg) | period in which the penile erection response primarily occurred (Sprague Dawley rats [3]; nasal administration, rats, 30 minutes) | % Rats with Penile Erection (Sprague Dawley rats [1]; dose 10.0 µg/kg) [%] | Number of Erections/Rat/30 Minutes (Sprague Dawley rats [1]; dose 10.0 µg/kg) | % Rats with Penile Erection (Sprague Dawley rats [1]; dose 100.0 µg/kg) [%] | Number of Erections/Rat/30 Minutes (Sprague Dawley rats [1]; dose 100.0 µg/kg) | Ki (MC5-R) [nM]
Ac-Nle-cyclo(-Asp-His-D-Phe-Arg-Trp-Lys)-OH [Compound 1] | exhibits agonist activity | 2 µg/kg of body weight | ≥ 1 µg/kg of body weight | – | – | – | – | – | – | – | – | – | – | – | – | –
Melanotan-II | – | 100 µg/kg of body weight | ≥ 100 µg/kg of body weight | 23.7 | 0.12 | 8 of 10 | 25 | 0.25 | 100 | 1.0 | 2nd and 3rd ten-minute period | 17 | 0.3 | 75 | 1.0 | 69.5
